The subject of assay [1] is hyperthermia induced by intramuscular injection of pyrogenal. Description: Preventive antipyretic activity, pyrogenal hyperthermia. It counts as in vivo, Wistar rats. The procedure:
Experiments were conducted on 48 Wistar rats with body mass 165-182 g by intramuscular injection of pyrogenal (Gamalei State Research Institution, Moscow, Russia) in 100 μg dose (Shwarz G Y, Syubaev R D, Vedomosti NCEG lekarstvennyh sredstv MZ RF 2000; 1:44-50 (Rus). Test substances were given p.o. one hour before the pyrogenal injection. Rectal temperature was measured by electric thermometer TERMO before injection of pyrogenal (baseline) and for 3 hours after injection. The antipyretic activity was evaluated by the reduction of hyperthermic reaction 2 hours after injection of pyrogenal that correlated well with the published data (10) about the peak of reaction (Table 6). Ambient temperature was kept at 20-21° C.

For assay [2] the test system is unchanged. The assay can be described thus: Antipyretic activity, pyrogenal hyperthermia (curative mode). It is filed as in vivo, rats. The procedure:
The antipyretic effect of test substances in therapeutic (curative) mode was investigated on 48 rats with body mass 182-205 g, with hyperthermia induction by injecting pyrogenal in dose 100 μg (Shwarz G Y, Syubaev R D, Vedomosti NCEG lekarstvennyh sredstv MZ RF 2000; 1:44-50 (Rus). Test substances were given p.o. 2 hours after injection of pyrogenal immediately after the recording of elevated body temperature. Rectal temperature was measured by electric thermometer TERMO before the i.m. injection of pyrogenal (baseline temperature), at the peak of hyperthermia (pyrogenal control) and 30 min. after treatment with test substance, i.e., 2½ hours after the injection of pyrogenal. Ambient temperature in laboratory was kept at 20-22° C.

The subject of assay [3] is WBC, CRP, CIC in adjuvant arthritis. Description: Adjuvant arthritis: WBC, CRP and CIC in blood. It counts as in vivo, Wistar rats. On the procedure:
Our experiments were scheduled to test the influence of MASA on the progress of adjuvant arthritis in comparison with MD and ASA. Experiments were conducted on Wistar rats with starting body mass of 153-185 g. Rats were kept in climatized rooms at 22±1° C., relative humidity 60±5% and 12/12-hour light/darkness cycle. Each standard cage housed 7 rats with unlimited access to drinking water and granulated standard feed. All experiments were carried out in accordance with the European Community Council's Directive of 24 Nov. 1986 (86/609/EEC) relative to experimental animal care. All efforts were made to minimize animal suffering and to reduce the number of animals used.
A modified standard procedure for inducting and evaluating the progress of chronic adjuvant arthritis was used (Bellavite P, Ortolani R, Conforti A, Immunology and Homeopathy. 3. Experimental Studies on Animal Models, Advance Access Publication 2.05, 2006, 171-186). Rats were injected into the hind foot pad 0.1 ml and intraperitonealy with 0.05 ml of complete Freund's adjuvant solution.
Hematological indices were determined by standard methods on hematological analyzer ? PENTRA 120 ? , CRP was determined on ? INTEGRA 400+ ? . Levels of CIC in blood serum were determined spectrometrically, using […].

The subject of assay [4] is FeCl3 induced carotid artery thrombosis. Description: FeCl3 induced carotid artery thrombosis, time till occlusion. It is filed as in vivo, Wistar rats. As to conditions: for Time till occlusion, %: control = 100. The source says:
We chose an experimental thrombosis model based on rat arterial thrombosis induced by FeCl3 (Kurz K et al, Thromb Res 1990, 60:269-280. Wang X, Xu L, Thromb Res 2005,115:95-100). Tissue damage initiated by iron-mediated chemical oxidation predisposes the injured area to platelet adherence and aggregation followed by coagulation activation and fibrin deposition. Male Wistar rats with mass 350-420 g were used in experiments. Animals were kept in groups of 7-8 in adequate cages in climatized room at 22±1° C., relative humidity 60±5% and 12/12-hour light/darkness cycle with free access to feed and water. All experiments were carried out in accordance with the European Community Council's Directive of 24 Nov. 1986 (86/609/EEC) relative to experimental animal care. All efforts were made to minimize animal suffering and to reduce the number of animals used. Rats were randomly divided into various experimental groups, each consisting of not less than seven animals. The vehicle or test compound MD (25 mg/kg), NA (25 mg/kg), MASA (10 mg/kg), ASA (5 mg/kg) and combination MD+NA (25+25 mg/kg), MASA+NA (10+25 mg/kg) and ASA+NA (5+25 mg/kg) was administered by oral route 2 h before the initiation of thrombosis. Parallel experiments were conducted to compare the effects of a single dose of test substance (given 2 h before the initiation of thrombosis) and repeated doses (once daily for 3 days). […] Rats were anaesthetized with pentobarbital sodium (50 mg/kg, i.p. and 10 mg/kg/h) and were placed on a heat controlled operating table throughout the experiment to maintain a body temperature of 37° C. One of the carotid arteries was exposed by cervical incision, separated from the adherent tissue, vagus nerve, and a flow probe (electromagnetic blood flow meter MFV 1200, Nicon Kohden, Japan) was placed on the exposed segment of common carotid artery to record the blood flow. After a stabilization period of 15 min, thrombosis was induced by topically applying (in contact with the adventitial surface of vessel) two pieces (2×1 mm) of Whatman filter paper, soaked in 15% solution of FeCl3. Thrombosis time of carotid artery was recorded as time taken for the complete cessation of the blood flow and has been reported as time till occlusion (TTO).

The mark [5] stands for this setting: 10 mg/kg/d p.o., repeated, 3 days.
Setting [6] is: 5 mg/kg/d p.o., repeated, 3 days.
Setting [7] is: 25 mg/kg p.o., single dose 2 h before.

Experimental findings from US8889902B2, “Acetylsalicylic acid salts” (priority 2009, dated 2014) are described below.

Several values for one entry are separate records, joined by “and”; a condition that tells them apart may be missing. Identical values can stand only once. Marks after values point to notes of the source that are not given here.

For the compound `CC(=O)Oc1ccccc1C(=O)[O-].C[N+](C)(C)NCCC(=O)O` [MASA, 3-(trimethylammonioamino)propanoate Acetylsalicylic Acid Addition Salt], the “Rectal temperature 120 minutes after injection” value (from here on “Rectal temperature 120 minutes”) in assay [1] (75 mg/kg p.o. 1 h before pyrogenal) is 36.3 ± 0.20 °C; in assay [1] (150 mg/kg p.o. 1 h before pyrogenal), 36 ± 0.21 °C; in assay [1] (300 mg/kg p.o. 1 h before pyrogenal) it was 35.8 ± 0.16***^$ ° C. Moreover, the “Rectal temperature at 30 minutes after treatment” value (shortened to “Rectal temperature at 30 minutes”) in assay [2] (75 mg/kg p.o. 2 h after pyrogenal) is 36.90 ± 0.07 °C; in assay [2] (150 mg/kg p.o. 2 h after pyrogenal), 36.75 ± 0.09^#$ ° C; in assay [2] (300 mg/kg p.o. 2 h after pyrogenal) it was 36.40 ± 0.11*^$$% ° C. In addition, the “CIC units, Day 14” value in assay [3] (25 mg/kg daily p.o.) stood at 12.6 ± 0.68 units; in assay [3] (100 mg/kg daily p.o.), 20.8 ± 2.99 units; in assay [3] (200 mg/kg daily p.o.) it was 21.6 ± 3.26 units. The entries for the “CIC units, Day 28” value in assay [3] (25 mg/kg daily p.o.), in assay [3] (100 mg/kg daily p.o.) and in assay [3] (200 mg/kg daily p.o.) were 11.8 ± 1.53 units, 5.8 ± 0.74^##&@@$ units and 6.2 ± 1.02^##@ units, respectively. The “CRP, Day 14” value in assay [3] (25 mg/kg daily p.o.) is 0.29 ± 0.02 mg/L; in assay [3] (100 mg/kg daily p.o.) it was 0.29 ± 0.02 mg/L; in assay [3] (200 mg/kg daily p.o.), 0.25 ± 0.01*^#@ mg/l. Also, the figures for the “CRP, Day 28” value in assay [3] (25 mg/kg daily p.o.), in assay [3] (100 mg/kg daily p.o.) and in assay [3] (200 mg/kg daily p.o.) were 0.15 ± 0.02^##& mg/l, 0.16 ± 0.01^##& mg/l and 0.19 ± 0.01 mg/L, respectively. Further, the “Leucocytes (WBC), Day 14” value in assay [3] (25 mg/kg daily p.o.) is reported as 14.72 ± 1.63^# 10^3/mm^3; in assay [3] (100 mg/kg daily p.o.) it was 14.13 ± 0.53^## 10^3/mm^3; in assay [3] (200 mg/kg daily p.o.), 15.42 ± 1.40^# 10^3/mm^3. For the same compound, the results for the “Leucocytes (WBC), Day 28” value in assay [3] (25 mg/kg daily p.o.), in assay [3] (100 mg/kg daily p.o.) and in assay [3] (200 mg/kg daily p.o.) were 16.77 ± 1.78 10^3/mm^3, 15.52 ± 0.57^## 10^3/mm^3 and 14.35 ± 0.84^## 10^3/mm^3, respectively. The Time till occlusion in assay [4] (10 mg/kg p.o., single dose 2 h before) is 41.7 ± 3.95^2 min and 41.7 ± 3.95^2b min; in assay [4] (setting [5]) it was 48.4 ± 4.35^2 min. Besides, the “Time till occlusion, %” value in assay [4] (10 mg/kg p.o., single dose) came to 171%; in assay [4] (setting [5]), 191%.

In the case of `CC(=O)Oc1ccccc1C(=O)O` [ASA, acetylsalicylic acid], in assay [1] (50 mg/kg p.o. 1 h before pyrogenal), the “Rectal temperature 120 minutes” value is on record as 35.6 ± 0.19***^$ ° C. The “Rectal temperature at 30 minutes” value in assay [2] (50 mg/kg p.o. 2 h after pyrogenal) is listed as 36.51 ± 0.15*^$ ° C. Besides, in assay [3] (10 mg/kg daily p.o.), the “CIC units, Day 14” value was 10.8 ± 0.74 units; the “CIC units, Day 28” value stood at 8.2 ± 0.53 units; the “CRP, Day 14” value turned out to be 0.26 ± 0.01 mg/L; the “CRP, Day 28” value turned out to be 0.19 ± 0.01 mg/L. In assay [3] (100 mg/kg daily p.o.), the “CIC units, Day 14” value amounted to 15.0 ± 1.23 units; the “CIC units, Day 28” value is 14.4 ± 1.66 units; the “CRP, Day 14” value turned out to be 0.29 ± 0.01 mg/L; the “CRP, Day 28” value amounted to 0.18 ± 0.02 mg/L. In addition, the Time till occlusion in assay [4] (5 mg/kg p.o., single dose 2 h before) was 35.2 ± 3.02^1 min. In addition, in assay [4] (5 mg/kg p.o., single dose), the “Time till occlusion, %” value is reported as 144%. Besides, in assay [4] (setting [6]), the Time till occlusion was 40.9 ± 3.25^1 min and the “Time till occlusion, %” value came to 162%.

Regarding `O=C(O)c1cccnc1` [NA, nicotinic acid], in assay [4] (setting [7]), the Time till occlusion worked out at 30.3 ± 3.12 min. The “Time till occlusion, %” value in assay [4] (25 mg/kg p.o., single dose) came out at 124%.

For the compound `C[N+](C)(C)NCCC(=O)[O-].O.O` [MD, 3-(Trimethylammonioamino)propanoate dihydrate], the “Rectal temperature 120 minutes” value in assay [1] (100 mg/kg p.o. 1 h before pyrogenal) stood at 36.2 ± 0.16 °C. Further, the “Rectal temperature at 30 minutes” value in assay [2] (100 mg/kg p.o. 2 h after pyrogenal) is 37.10 ± 0.14 °C. In addition, in assay [3] (100 mg/kg daily p.o.), the “CIC units, Day 14” value amounted to 11.8 ± 2.22 units; the “CIC units, Day 28” value amounted to 8.6 ± 0.93 units; the “CRP, Day 14” value turned out to be 0.26 ± 0.02 mg/L; the “CRP, Day 28” value was 0.17 ± 0.02 mg/L. For the same compound, in assay [3] (100 mg/kg daily p.o.), the “Leucocytes (WBC), Day 14” value is reported as 14.42 ± 1.41^# 10^3/mm^3 and the “Leucocytes (WBC), Day 28” value is 15.55 ± 1.26^# 10^3/mm^3. For the same compound, the Time till occlusion in assay [4] (setting [7]) came out at 29.8 ± 2.29 min. Moreover, the “Time till occlusion, %” value in assay [4] (25 mg/kg p.o., single dose) is reported as 122%.
